The molecules below were run against human MDM2 protein (amino acids 2-188) (Homo sapiens (Human), UniProt Q00987) (assay: TR-FRET assay, p53-MDM2 Assay 2 (modified)). Details: TR-FRET; 0.1 nM MDM2, 0.1 nM Europium labeled streptavidin, Tecan genios Pro reader; read-out: IC50 p53-MDM2 Assay 2.
Chain of human MDM2 protein (amino acids 2-188) (Q00987 2-188): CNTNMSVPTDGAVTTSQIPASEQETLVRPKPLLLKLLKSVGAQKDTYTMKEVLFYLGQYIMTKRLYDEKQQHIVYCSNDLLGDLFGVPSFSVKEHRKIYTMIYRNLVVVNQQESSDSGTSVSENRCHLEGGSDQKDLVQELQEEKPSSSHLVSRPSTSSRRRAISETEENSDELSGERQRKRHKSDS
Format: binding
Protocol: The inhibition of p53-MDM2 and p53-MDM4 interactions is measured by time resolved fluorescence energy transfer (TR-FRET). Fluorescence energy transfer (or Foerster resonance energy transfer) describes an energy transfer between donor and acceptor fluorescent molecules. For this assay, human MDM2 protein (amino acids 2-188) and human MDM4 protein (amino acids 2-185), tagged with a C-terminal biotin moiety, are used in combination with a Europium labeled streptavidin (Perkin Elmer, Inc., Waltham, Mass., USA) serving as the donor fluorophore. The p53 derived, Cy5 labeled peptide Cy5-[…] (p53 aa18-26) is the energy acceptor. Upon excitation of the donor molecule at 340 nm, binding interaction between MDM2 or MDM4 and the p53 peptide induces energy transfer and enhanced response at the acceptor emission wavelength at 665 nm. […] The ratiometric FRET assay readout is calculated from the raw data of the two distinct fluorescence signals measured in time resolved mode (fluorescence 665 nm/fluorescence 620 nm×1000).
After addition of 1.25 nM MDM2-biotinylated or 2.5 nM MDM4-biotinylated (internal preparations), and 0.625 nM Europium labeled streptavidin (Perkin Elmer), the solution is pre-incubated for 15 minutes at room temperature, then 10 nM Cy5-p53 peptide (internal preparation) is added before an incubation at room temperature for 15 minutes prior to reading the plate. For measurement of samples, a Victor II microplate reader (Perkin Elmer) is used with the following settings: Excitation 340 nm, Emission Donor 620 nm and Emission Acceptor 665 nm. IC50 values are calculated by curve fitting using XLfit. If not specified, reagents are purchased from Sigma-Aldrich Chemie GmBH, Buchs, Switzerland.
With COc1ncc(-c2cc3c(n2C(C)C)[C@@H](c2ccc(Cl)cc2C)N(c2cc(Cl)c(=O)n(C)c2)C3=O)c(OC)n1 [Example 161, (R)-5-(5-Chloro-1-methyl-6-oxo-1,6-dihydro-pyridin-3-yl)-6-(4-chloro-2-methyl-phenyl)-2-(2,4-dimethoxy-pyrimidin-5-yl)-1-isopropyl-5,6-dihydro-1H-pyrrolo[3,4-b]pyrrol-4-one] the IC50 was 308000 pM.
CNc1ncc(-c2cc3c(n2C(C)C)C(c2ccc(Cl)cc2)N(c2cc(Cl)c[nH]c2=O)C3=O)c(OC)n1 (centres unmarked) [Example 124, 5-(5-Chloro-2-oxo-1,2-dihydro-pyridin-3-yl)-6-(4-chloro-phenyl)-1-isopropyl-2-(4-methoxy-2-methylamino-pyrimidin-5-yl)-5,6-dihydro-1H-pyrrolo[3,4-b]pyrrol-4-one] showed an IC50 of 185 pM.
For COc1ncc(-c2cc3c(n2C(C)C)C(c2ccc(Cl)c(F)c2)N(c2cc(Cl)c[nH]c2=O)C3=O)c(OC)n1 (centres unmarked) [Example 202, 6-(4-Chloro-3-fluoro-phenyl)-5-(5-chloro-2-oxo-1,2-dihydro-pyridin-3-yl)-2-(2,4-dimethoxy-pyrimidin-5-yl)-1-isopropyl-5,6-dihydro-1H-pyrrolo[3,4-b]pyrrol-4-one], the IC50 was 201 pM.
Molecule COc1nc(N)ncc1-c1cc2c(n1C(C)C)C(c1ccc(Cl)cc1)N(c1cc(Cl)cn(C)c1=O)C2=O (centres unmarked) [Example 71, 2-(2-Amino-4-methoxy-pyrimidin-5-yl)-5-(5-chloro-1-methyl-2-oxo-1,2-dihydro-pyridin-3-yl)-6-(4-chloro-phenyl)-1-isopropyl-5,6-dihydro-1H-pyrrolo[3,4-b]pyrrol-4-one] has an IC50 of 635 pM.
Work on COc1ncc(CC#N)cc1-c1cc2c(n1C(C)C)C(c1ccc(C#N)cc1)N(c1cccc(Cl)c1F)C2=O (centres unmarked) [Example 88, 4-[5-(3-Chloro-2-fluoro-phenyl)-2-(5-cyanomethyl-2-methoxy-pyridin-3-yl)-1-isopropyl-4-oxo-1,4,5,6-tetrahydro-pyrrolo[3,4-b]pyrrol-6-yl]-benzonitrile] yielded an IC50 of 1640 pM.
For COc1ncc(-c2cc3c(n2C(C)C)C(c2ccc(Cl)cc2)N(C2CN(C)C(=O)N(C)C2)C3=O)c(OC)n1 (centres unmarked) [Example 110, 6-(4-Chloro-phenyl)-2-(2,4-dimethoxy-pyrimidin-5-yl)-5-(1,3-dimethyl-2-oxo-hexahydro-pyrimidin-5-yl)-1-isopropyl-5,6-dihydro-1H-pyrrolo[3,4-b]pyrrol-4-one], the IC50 was 741 pM.
COc1nc(N)ncc1-c1cc2c(n1C(C)C)C(c1ccc(Cl)cc1C)N(c1cc(Cl)c(=O)n(C)c1)C2=O (centres unmarked) [Example 148, 2-(2-Amino-4-methoxy-pyrimidin-5-yl)-5-(5-chloro-1-methyl-6-oxo-1,6-dihydro-pyridin-3-yl)-6-(4-chloro-2-methyl-phenyl)-1-isopropyl-5,6-dihydro-1H-pyrrolo[3,4-b]pyrrol-4-one] gave an IC50 of 592 pM.
For COc1nc(N(C)C)ncc1-c1cc2c(n1C(C)C)C(c1ccc(Cl)c(F)c1)N(c1cc(Cl)c(=O)n(C)c1)C2=O (centres unmarked) [Example 193, 6-(4-Chloro-3-fluoro-phenyl)-5-(5-chloro-1-methyl-6-oxo-1,6-dihydro-pyridin-3-yl)-2-(2-dimethylamino-4-methoxy-pyrimidin-5-yl)-1-isopropyl-5,6-dihydro-1H-pyrrolo[3,4-b]pyrrol-4-one], the IC50 was 139 pM.
In the case of COc1ncc(-c2cc3c(n2C(C)C)C(c2ccc(Cl)cn2)N(c2cc(Cl)ccc2C)C3=O)c(OC)n1 (centres unmarked) [Example 235, 5-(5-Chloro-2-methylphenyl)-6-(5-chloropyridin-2-yl)-2-(2,4-dimethoxypyrimidin-5-yl)-1-isopropyl-1-5,6-dihydropyrrolo[3,4-b]pyrrol-4(1H)-one], the IC50 is reported as 7160 pM.
In the case of CNc1ncc(-c2cc3c(n2C(C)C)C(c2ccc(Cl)cc2)N(c2c[nH]c(=O)c(Cl)c2)C3=O)c(OC)n1 (centres unmarked) [Example 152, 5-(5-Chloro-6-oxo-1,6-dihydro-pyridin-3-yl)-6-(4-chloro-phenyl)-1-isopropyl-2-(4-methoxy-2-methylamino-pyrimidin-5-yl)-5,6-dihydro-1H-pyrrolo[3,4-b]pyrrol-4-one], the IC50 is reported as 166 pM.
COc1ncc(-c2cc3c(n2C(C)C)C(c2ccc(Cl)cc2)N(c2cn(C)c(=O)cc2C)C3=O)c(OC)n1 (centres unmarked) [Example 111, 6-(4-Chloro-phenyl)-2-(2,4-dimethoxy-pyrimidin-5-yl)-5-(1,4-dimethyl-6-oxo-1,6-dihydro-pyridin-3-yl)-1-isopropyl-5,6-dihydro-1H-pyrrolo[3,4-b]pyrrol-4-one] was tested, and the IC50 was 1840 pM.
With COc1ncc(-c2cc3c(n2C(C)C)C(c2ccc(C#N)cc2)N(c2cc(Cl)cn(C)c2=O)C3=O)c(OC)n1 (centres unmarked) [Example 132, 4-[5-(5-Chloro-1-methyl-2-oxo-1,2-dihydro-pyridin-3-yl)-2-(2,4-dimethoxy-pyrimidin-5-yl)-1-isopropyl-4-oxo-1,4,5,6-tetrahydro-pyrrolo[3,4-b]pyrrol-6-yl]-benzonitrile] the IC50 was 1150 pM.
COc1ncc(-c2cc3c(n2C(C)C)C(c2ccc(C#N)cc2)N(C2CCOCC2)C3=O)c(OC)n1 (centres unmarked) [Example 157, 4-[2-(2,4-Dimethoxy-pyrimidin-5-yl)-1-isopropyl-4-oxo-5-(tetrahydro-pyran-4-yl)-1,4,5,6-tetrahydro-pyrrolo[3,4-b]pyrrol-6-yl]-benzonitrile] gave an IC50 of 7900 pM.
COc1ccccc1-c1cc2c(n1C(C)C)C(c1ccc(Cl)cc1)N(c1cc(Cl)c(=O)n(C)c1)C2=O (centres unmarked) [Example 46, 5-(5-Chloro-1-methyl-6-oxo-1,6-dihydro-pyridin-3-yl)-6-(4-chloro-phenyl)-1-isopropyl-2-(2-methoxy-phenyl)-5,6-dihydro-1H-pyrrolo[3,4-b]pyrrol-4-one] showed an IC50 of 203 pM.
COc1ncc(-c2cc3c(n2C(C)C)C(c2ccc(Cl)cc2)N(c2cc(Cl)c(=O)n(C)c2F)C3=O)c(OC)n1 (centres unmarked) [Example 156, 5-(5-Chloro-2-fluoro-1-methyl-6-oxo-1,6-dihydro-pyridin-3-yl)-6-(4-chloro-phenyl)-2-(2,4-dimethoxy-pyrimidin-5-yl)-1-isopropyl-5,6-dihydro-1H-pyrrolo[3,4-b]pyrrol-4-one] gave an IC50 of 122 pM.
In the case of COc1nc(N(C)C)ncc1-c1cc2c(n1C(C)C)C(c1ccc(Cl)cc1)N(c1c[nH]c(=O)c(Cl)c1)C2=O (centres unmarked) [Example 140, 5-(5-Chloro-6-oxo-1,6-dihydro-pyridin-3-yl)-6-(4-chloro-phenyl)-2-(2-dimethylamino-4-methoxy-pyrimidin-5-yl)-1-isopropyl-1-5,6-dihydro-1H-pyrrolo[3,4-b]pyrrol-4-one], the IC50 is reported as 231 pM.
Molecule COc1ccccc1-c1c(F)c2c(n1C(C)C)C(c1ccc(Cl)cc1)N(c1cc(Cl)ccc1C)C2=O (centres unmarked) [Example 115, 5-(5-Chloro-2-methyl-phenyl)-6-(4-chloro-phenyl)-3-fluoro-1-isopropyl-2-(2-methoxy-phenyl)-5,6-dihydro-1H-pyrrolo[3,4-b]pyrrol-4-one] has an IC50 of 485 pM.
Molecule COc1nc(N)ncc1-c1cc2c(n1C(C)C)C(c1ccc(Cl)cc1)N(c1c(F)c(C)nn1C)C2=O (centres unmarked) [Example 210, 2-(2-Amino-4-methoxy-pyrimidin-5-yl)-6-(4-chloro-phenyl)-5-(4-fluoro-2,5-dimethyl-2H-pyrazol-3-yl)-1-isopropyl-5,6-dihydro-1H-pyrrolo[3,4-b]pyrrol-4-one] has an IC50 of 3900 pM.
For COc1ccc(C(=O)O)cc1-c1cc2c(n1C(C)C)[C@H](c1ccc(Cl)cc1)N(c1cc(Cl)ccc1C)C2=O [Example 89, 3-[(S)-5-(5-Chloro-2-methyl-phenyl)-6-(4-chloro-phenyl)-1-isopropyl-4-oxo-1,4,5,6-tetrahydro-pyrrolo[3,4-b]pyrrol-2-yl]-4-methoxy-benzoic acid], the IC50 was 80 pM.
With COc1ncncc1-c1cc2c(n1C(C)C)C(c1ccc(Cl)cc1)N(c1cc(Cl)ccc1C)C2=O (centres unmarked) [Example 16, 5-(5-Chloro-2-methyl-phenyl)-6-(4-chloro-phenyl)-1-isopropyl-2-(4-methoxy-pyrimidin-5-yl)-5,6-dihydro-1H-pyrrolo[3,4-b]pyrrol-4-one] the IC50 was 308 pM.
[2H]C([2H])([2H])Oc1ncc(-c2cc3c(n2C(C)C)[C@@H](c2ccc(Cl)cc2)N(c2cc(Cl)c(=O)n(C)c2)C3=O)c(OC([2H])([2H])[2H])n1 [Example 219, (R)-5-(5-Chloro-1-methyl-6-oxo-1,6-dihydro-pyridin-3-yl)-6-(4-chloro-phenyl)-2-(2,4-d6-dimethoxy-pyrimidin-5-yl)-1-isopropyl-5,6-dihydro-1H-pyrrolo[3,4-b]pyrrol-4-one] was tested, and the IC50 was 28300 pM.
COc1ccc(CC(=O)O)cc1-c1cc2c(n1C(C)C)C(c1ccc(Cl)cc1)N(c1cc(Cl)ccc1C)C2=O (centres unmarked) [Example 60, {3-[5-(5-Chloro-2-methyl-phenyl)-6-(4-chloro-phenyl)-1-isopropyl-4-oxo-1,4,5,6-tetrahydro-pyrrolo[3,4-b]pyrrol-2-yl]-4-methoxy-phenyl}-acetic acid] gave an IC50 of 155 pM.
COc1ncc(-c2cc3c(n2C(C)C)[C@@H](c2ccc(Cl)cc2)N(c2cc(Cl)c(=O)n(C)c2)C3=O)c(OC)n1 [Example 122, (R)-5-(5-Chloro-1-methyl-6-oxo-1,6-dihydro-pyridin-3-yl)-6-(4-chloro-phenyl)-2-(2,4-dimethoxy-pyrimidin-5-yl)-1-isopropyl-5,6-dihydro-1H-pyrrolo[3,4-b]pyrrol-4-one] was tested, and the IC50 was 76900 pM.

— patent US9365576B2, “Pyrrolopyrrolidinone compounds” (Novartis AG, priority 2012, dated 2016)
